In patent US20240425478A1, “CYCLOPENTYLPYRAZOLE CDK2 INHIBITORS” (Genentech, Inc., priority 2021, published 2024):
Where two headings read alike, the source gives them in different places.

Tests used:
HCT116 cells = assay: p-H3 HCT-116 mitotic release cell proliferation assay (cellular CDK1); format: cell-based; conditions: Homo sapiens, HCT-116; Table O, cellular assay; read-out: CDK1 p-H3 IC50
Outline: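 HCT116 cells arrested 16 h with 500 nM nocodazole, then exposed to compound for 4 h at 37 °C (0.1% DMSO). Lysates read by HTRF/FRET with donor and acceptor phospho-Histone H3 (Ser10) antibodies, ≥2 h at room temperature; CDK1 inhibition seen as loss of p-H3 on mitotic release.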

[1] = system: OVISE (JCRB1043, CCNE1-amplified); assay: OVISE EdU incorporation cell proliferation assay (CDK2-dependent); format: cell-based; conditions: for IC50 / FS SKOV-3/OVISE / FS p-H3/OVISE: Table O; for IC50: cellular assay, read-out: CDK2 OVISE IC50; for FS SKOV-3/OVISE / FS p-H3/OVISE: fold selectivity; for FS SKOV-3/OVISE: cellular SKOV-3 IC50 over OVISE IC50; for FS p-H3/OVISE: cellular p-H3 IC50 over OVISE IC50; for CDK2 OVISE IC50 fold change in potency versus Comparator D: Table R; for CDK2 OVISE IC50 fold change in potency versus Comparator D / CDK2 OVISE IC50 fold change in potency versus Comparator E: in brackets after OVISE IC50; for CDK2 OVISE IC50 fold change in potency versus Comparator E: Table S
Outline: (§1)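 Cells in RPMI/10% FBS dosed with compound (0.5% DMSO final) for 16 h at 37 °C, 5% CO2, then EdU 0.5 μM final for 8 h before fixation and imaging. IC50 from 4-parameter logistic fit of EdU-positive cell fraction versus dose.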

[2] = target: T1, Cyclin Dependent Kinase 1/Cyclin A2 (CDK1-cycA2) (Homo sapiens, UniProt P06493); assay: CDK1-cycA2 TR-FRET (Lance) enzyme assay; format: biochemical; conditions: for Ki: Table O, enzymatic assay; for FS CDK1/CDK2: fold selectivity, enzymatic Ki ratio
T1 construct: purchased ProQinase 0134-0054-1
T1 sequence (P06493 whole entry): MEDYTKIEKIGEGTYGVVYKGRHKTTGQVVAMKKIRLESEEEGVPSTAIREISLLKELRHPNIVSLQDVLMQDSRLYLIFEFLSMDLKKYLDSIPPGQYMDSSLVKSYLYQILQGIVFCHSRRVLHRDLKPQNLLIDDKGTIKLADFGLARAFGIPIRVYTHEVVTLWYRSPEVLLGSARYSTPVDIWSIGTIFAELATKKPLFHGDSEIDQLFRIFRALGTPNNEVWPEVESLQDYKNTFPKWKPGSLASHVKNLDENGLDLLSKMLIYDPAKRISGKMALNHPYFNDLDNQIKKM
T1 sequence (P20248 whole entry partner): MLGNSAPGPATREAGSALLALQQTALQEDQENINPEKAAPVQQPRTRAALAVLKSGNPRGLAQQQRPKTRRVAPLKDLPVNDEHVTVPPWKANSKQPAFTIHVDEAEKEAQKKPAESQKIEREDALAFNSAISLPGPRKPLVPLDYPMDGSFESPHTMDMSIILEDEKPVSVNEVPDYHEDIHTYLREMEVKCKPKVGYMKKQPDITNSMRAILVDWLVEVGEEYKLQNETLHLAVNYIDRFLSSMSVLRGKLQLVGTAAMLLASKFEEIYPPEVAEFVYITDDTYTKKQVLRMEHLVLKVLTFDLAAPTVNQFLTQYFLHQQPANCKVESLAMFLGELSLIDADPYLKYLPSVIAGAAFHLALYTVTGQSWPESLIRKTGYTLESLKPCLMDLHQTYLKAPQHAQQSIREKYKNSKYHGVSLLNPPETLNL
Outline: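 Human CDK1/cyclin A2 pre-incubated 30 min with compound dose responses in 50 mM HEPES pH 7.5, 10 mM MgCl2, 2 mM TCEP, 0.05% BGG, 0.01% Brij 35. Reaction quenched with EDTA (15 mM final); TR-FRET readout using Eu-anti-phospho-4E-BP1, acceptor/donor ratio. Inhibition constants from Morrison equation.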

[3] = target: T2, Cyclin Dependent Kinase 4/Cyclin D3 (CDK4-cycD3) (Homo sapiens, UniProt P11802); assay: CDK4-cycD3 TR-FRET (LANCE) enzyme assay; format: biochemical; conditions: for Ki: Table O, enzymatic assay; for FS CDK4/CDK2: fold selectivity, enzymatic Ki ratio
T2 construct: purchased Carna Biosciences 04-105
T2 sequence (P11802 whole entry): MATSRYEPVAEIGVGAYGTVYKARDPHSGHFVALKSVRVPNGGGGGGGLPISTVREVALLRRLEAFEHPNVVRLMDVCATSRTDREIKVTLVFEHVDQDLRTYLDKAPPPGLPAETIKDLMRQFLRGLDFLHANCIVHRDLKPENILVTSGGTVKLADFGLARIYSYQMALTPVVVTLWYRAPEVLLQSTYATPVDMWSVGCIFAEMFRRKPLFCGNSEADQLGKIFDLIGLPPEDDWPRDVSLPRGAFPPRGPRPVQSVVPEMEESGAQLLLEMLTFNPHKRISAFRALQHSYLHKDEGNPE
T2 sequence (P30281 whole entry partner): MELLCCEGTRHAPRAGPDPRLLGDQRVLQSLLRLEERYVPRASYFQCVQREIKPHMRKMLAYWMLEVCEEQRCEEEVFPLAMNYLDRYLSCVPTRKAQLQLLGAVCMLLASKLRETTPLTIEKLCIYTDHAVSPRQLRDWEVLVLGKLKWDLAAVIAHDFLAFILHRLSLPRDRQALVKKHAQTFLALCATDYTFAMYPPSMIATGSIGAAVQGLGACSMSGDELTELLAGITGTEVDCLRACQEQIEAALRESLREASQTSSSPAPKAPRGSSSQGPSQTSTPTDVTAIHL
Outline: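 Compound dose responses pre-incubated 30 min with enzyme mix in 50 mM HEPES pH 7.5, 10 mM MgCl2, 2 mM TCEP, 0.05% BGG, 0.01% Brij 35. Reaction quenched with EDTA (15 mM final); Eu-anti-phospho-4E-BP1 TR-FRET detection, acceptor/donor ratio. Ki derived by Morrison equation.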

[4] = target: T3, Cyclin Dependent Kinase 2/Cyclin E1 (CDK2-cycE1) (Homo sapiens, UniProt P24941); assay: CDK2-cycE1 TR-FRET (LANCE) enzyme assay; format: biochemical; conditions: for FS CDK1/CDK2 / FS CDK4/CDK2: fold selectivity; for FS CDK1/CDK2: enzymatic CDK1 Ki over CDK2 Ki; for FS CDK4/CDK2: enzymatic CDK4 Ki over CDK2 Ki; for CDK2 Ki fold change in potency versus Comparator D / CDK2 Ki fold change in potency versus Comparator E: in brackets after CDK2 Ki
T3 construct: purchased ProQinase 0050-0055-1
Outline: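 Compound dose responses pre-incubated 30 min with CDK2-cycE1 in 50 mM HEPES pH 7.5, 10 mM MgCl2, 2 mM TCEP, 0.05% BGG, 0.01% Brij 35. Reaction quenched with EDTA (15 mM final), phospho-MBP detected by Eu-anti-phospho-MBP TR-FRET (acceptor/donor ratio). Inhibition constants from Morrison equation.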

SKOV-3 (ATCC HTB-77) = assay: SKOV-3 EdU incorporation cell proliferation assay (CDK4/6-dependent); format: cell-based; conditions: for IC50: Homo sapiens, SK-OV-3, Table O, cellular assay, read-out: CDK4/6 SKOV-3 IC50; for selectivity for CDK2 over CDK4 compared with Comparator E: SKOV-3/OVISE fold-selectivity cellular assay data; for FS SKOV-3/OVISE: fold selectivity, cellular IC50 ratio
Outline: as §1

[5] = Table O, enzymatic assay, read-out: CDK2 Ki
[6] = Table R, enzymatic assay, read-out: CDK2 Ki
[7] = Table S, enzymatic assay, read-out: CDK2 Ki
[8] = read-out: CDK2 activity / potency (enzymatic assay)

CN1CCC(NC(=O)O[C@@H]2CC[C@H](c3cc(Nc4cccnn4)n[nH]3)C2)CC1 [Example 3E, (1R,3S)-3-(3-(pyridazin-3-ylamino)-1H-pyrazol-5-yl)cyclopentyl (1-methylpiperidin-4-yl)carbamate]
IC50 (HCT116 cells): 1.4 µM | IC50 [1]: 0.42 µM | FS SKOV-3/OVISE [1]: 31 | FS p-H3/OVISE [1]: 3.3 | Ki [2]: 0.28 µM | Ki [3]: 0.72 µM | Ki [4, 5]: 0.01 µM | FS CDK1/CDK2 ([4]; Table O): 28 | FS CDK4/CDK2 ([4]; Table O): 72 | IC50 (SKOV-3 (ATCC HTB-77)): 13 µM

CC1(NC(=O)O[C@@H]2CC[C@H](c3cc(Nc4cccnn4)n[nH]3)C2)CNC1 [Example 3F, (1R,3S)-3-(3-(pyridazin-3-ylamino)-1H-pyrazol-5-yl)cyclopentyl (3-methylazetidin-3-yl)carbamate]
IC50 (HCT116 cells): 0.35 µM | IC50 [1]: 0.32 µM | FS SKOV-3/OVISE [1]: 4.1 | FS p-H3/OVISE [1]: 1.1 | Ki [2]: 0.11 µM | Ki [3]: 0.024 µM | Ki [4, 5]: 0.004 µM | FS CDK1/CDK2 ([4]; Table O): 27 | FS CDK4/CDK2 ([4]; Table O): 6 | IC50 (SKOV-3 (ATCC HTB-77)): 1.3 µM

Cc1ncccc1Nc1cc([C@H]2CC[C@@H](OC(=O)NC(C)(C)C)C2)[nH]n1 [Example 4, (1R,3S)-3-(3-((2-methylpyridin-3-yl)amino)-1H-pyrazol-5-yl)cyclopentyl tert-butylcarbamate]
IC50 (HCT116 cells): 0.03 µM | CDK2 cell potency compared with Comparator E ([1]; CDK2 OVISE cellular assay data): more potent CDK2 cell inhibitors compared to Comparator E | IC50 [1]: 0.02 µM | FS SKOV-3/OVISE [1]: 46 | FS p-H3/OVISE [1]: 1.5 | CDK2 OVISE IC50 fold change in potency versus Comparator D [1]: 190 fold | CDK2 OVISE IC50 fold change in potency versus Comparator E [1]: 8.5 fold | Ki [2]: 0.025 µM | FS CDK1/CDK2 increased over Comparator D, (+) sign ([2]; Table R): (+) | FS CDK1/CDK2 ([2]; Table R): 110 | FS CDK1/CDK2 increased over Comparator E, (+) sign ([2]; Table S): (+) | FS CDK1/CDK2 ([2]; Table S): 110 | Ki [3]: 0.034 µM | FS CDK4/CDK2 increased over Comparator D, (+) sign ([3]; Table R): (+) | FS CDK4/CDK2 ([3]; Table R): 160 | FS CDK4/CDK2 increased over Comparator E, (+) sign ([3]; Table S): (+) | FS CDK4/CDK2 ([3]; Table S): 160 | Ki [4, 5]: 0.00022 µM | FS CDK1/CDK2 ([4]; Table O): 110 | FS CDK4/CDK2 ([4]; Table O): 160 | Ki [4, 6]: 0.00022 µM | CDK2 Ki fold change in potency versus Comparator D ([4]; Table R): 12.3 fold | Ki [4, 7]: 0.00022 µM | CDK2 Ki fold change in potency versus Comparator E ([4]; Table S): 2.4 fold | Ki [4, 8]: ≤ 0.001 µM | IC50 (SKOV-3 (ATCC HTB-77)): 0.92 µM | selectivity for CDK2 over CDK4 compared with Comparator E (SKOV-3 (ATCC HTB-77)): increase in selectivity for CDK2 over CDK4 | FS SKOV-3/OVISE increased over Comparator D, (+) sign (SKOV-3 (ATCC HTB-77); Table R): (+) | FS SKOV-3/OVISE (SKOV-3 (ATCC HTB-77); Table R): 46 | FS SKOV-3/OVISE increased over Comparator E, (+) sign (SKOV-3 (ATCC HTB-77); Table S): (+) | FS SKOV-3/OVISE (SKOV-3 (ATCC HTB-77); Table S): 46

Cc1ccncc1Nc1cc([C@H]2CC[C@@H](OC(=O)NC(C)(C)C)C2)[nH]n1 [Example 4A, (1R,3S)-3-(3-((4-methylpyridin-3-yl)amino)-1H-pyrazol-5-yl)cyclopentyl tert-butylcarbamate]
IC50 (HCT116 cells): 0.093 µM | IC50 [1]: 0.18 µM | FS SKOV-3/OVISE [1]: 71 | FS p-H3/OVISE [1]: 0.72 | CDK2 OVISE IC50 fold change in potency versus Comparator D [1]: 21 fold | CDK2 OVISE IC50 fold change in potency versus Comparator E [1]: 0.9 fold | Ki [2]: 0.21 µM | FS CDK1/CDK2 increased over Comparator D, (+) sign ([2]; Table R): (+) | FS CDK1/CDK2 ([2]; Table R): 78 | FS CDK1/CDK2 increased over Comparator E, (+) sign ([2]; Table S): (+) | FS CDK1/CDK2 ([2]; Table S): 78 | Ki [3]: 0.41 µM | FS CDK4/CDK2 increased over Comparator D, (+) sign ([3]; Table R): (+) | FS CDK4/CDK2 ([3]; Table R): 170 | FS CDK4/CDK2 increased over Comparator E, (+) sign ([3]; Table S): (+) | FS CDK4/CDK2 ([3]; Table S): 170 | Ki [4, 5]: 0.0026 µM | FS CDK1/CDK2 ([4]; Table O): 78 | FS CDK4/CDK2 ([4]; Table O): 170 | Ki [4, 6]: 0.0026 µM | CDK2 Ki fold change in potency versus Comparator D ([4]; Table R): 1 fold | Ki [4, 7]: 0.0026 µM | CDK2 Ki fold change in potency versus Comparator E ([4]; Table S): 0.2 fold | IC50 (SKOV-3 (ATCC HTB-77)): 9.9 µM | selectivity for CDK2 over CDK4 compared with Comparator E (SKOV-3 (ATCC HTB-77)): increase in selectivity for CDK2 over CDK4 | FS SKOV-3/OVISE increased over Comparator D, (+) sign (SKOV-3 (ATCC HTB-77); Table R): (+) | FS SKOV-3/OVISE (SKOV-3 (ATCC HTB-77); Table R): 71 | FS SKOV-3/OVISE increased over Comparator E, (+) sign (SKOV-3 (ATCC HTB-77); Table S): (+) | FS SKOV-3/OVISE (SKOV-3 (ATCC HTB-77); Table S): 71

Cc1ccc(Nc2cc([C@H]3CC[C@@H](OC(=O)NC(C)(C)C)C3)[nH]n2)cn1 [Example 4B, (1R,3S)-3-(3-((6-methylpyridin-3-yl)amino)-1H-pyrazol-5-yl)cyclopentyl tert-butylcarbamate]
IC50 (HCT116 cells): 0.023 µM | IC50 [1]: 0.033 µM | FS SKOV-3/OVISE [1]: 12 | FS p-H3/OVISE [1]: 0.70 | CDK2 OVISE IC50 fold change in potency versus Comparator D [1]: 115 fold | CDK2 OVISE IC50 fold change in potency versus Comparator E [1]: 5.2 fold | Ki [2]: 0.02 µM | FS CDK1/CDK2 increased over Comparator D, (+) sign ([2]; Table R): (+) | FS CDK1/CDK2 ([2]; Table R): 38 | FS CDK1/CDK2 ([2]; Table S): 38 | Ki [3]: 0.019 µM | FS CDK4/CDK2 increased over Comparator D, (+) sign ([3]; Table R): (+) | FS CDK4/CDK2 ([3]; Table R): 37 | FS CDK4/CDK2 ([3]; Table S): 37 | Ki [4, 5]: 0.00052 µM | FS CDK1/CDK2 ([4]; Table O): 38 | FS CDK4/CDK2 ([4]; Table O): 37 | Ki [4, 6]: 0.00052 µM | CDK2 Ki fold change in potency versus Comparator D ([4]; Table R): 5.2 fold | Ki [4, 7]: 0.00052 µM | CDK2 Ki fold change in potency versus Comparator E ([4]; Table S): 1 fold | Ki [4, 8]: ≤ 0.001 µM | IC50 (SKOV-3 (ATCC HTB-77)): 0.39 µM | FS SKOV-3/OVISE increased over Comparator D, (+) sign (SKOV-3 (ATCC HTB-77); Table R): (+) | FS SKOV-3/OVISE (SKOV-3 (ATCC HTB-77); Table R): 12 | FS SKOV-3/OVISE (SKOV-3 (ATCC HTB-77); Table S): 12
